Data set [1] has as its system SD rats. The data set can be described thus: U46619-induced rat acute pulmonary arterial pressure rise model, airway nebulized administration (RVSP). It is filed as in vivo. The text has this: U46619 was a stable analogue of thromboxane A2 (TXA2), which activated the downstream IP3 signal by binding to the thromboxane A2 receptor to promote vasoconstriction, platelet aggregation and the like. Influences of compound C16-TR and equimolar compounds Ia-1, Ia-2, Ia-3, R-11 and R-12 at different time points after airway nebulized administration on pulmonary hypertension of rats were studied by using the U46619-induced rat pulmonary arterial pressure rise mode, which were compared with that of equimolar TRE after airway nebulized administration.
Preparation of test sample: a required amount of compound TRE was taken and added into a sterile EP tube, and each tube was added with an appropriate amount of DMSO for dissolution to prepare a stock solution (100 mg/mL). Compounds C16-TR, la-1, la-2, Ia-3, R-11 and R-12 were added with appropriate amounts of DMSO and dissolved in the original bottles to prepare stock solutions (100 mg/mL), and then the stock solutions were transferred to sterile EP tubes. Each above stock solution was hermetically stored in the dark in a refrigerator at 4°C. When the stock solution was tested, an appropriate amount of stock solution was taken and added into a new sterile EP tube, and diluted with DMSO and 1×PBS to a target concentration (working solution) wherein the solvent was 3% DMSO/1×PBS.
Preparation of modeling agent: 900 µL of methyl acetate was added into an original bottle of U46619 and mixed evenly to prepare 1 mg/mL(1 µg/µL) stock solution, which was divided into 10 µL (1 µg/µL) per sterile EP tube and stored in a refrigerator at -20°C. On the day of modeling, the stock solution was taken out and balanced at room temperature and constant temperature, and each tube was added with an appropriate amount of 0.9% sodium chloride solution (sterile) to be diluted 20-fold, so as to prepare a working solution with a concentration of 50 ng/µL.
Airway nebulized administration dosages of compound TRE and the test compounds were equimolar quantities calculated based on TRE. The dosage of compound TRE group (n=3) was 13.3 µg/kg, the dosage of compound C16-TR group (n=5) was 20.9 µg/kg, the dosage of compound Ia-1 group (n=3) was 21.2 µg/kg, the dosage of compound Ia-2 group (n=6) was 22.1 µg/kg, the dosage of compound Ia-3 group (n=6) was 23.1 µg/kg, the dosage of compound R-11 group (n=3) was 21.9 µg/kg, and the dosage of compound R-12 group (n=3) was 21.7 µg/kg. There were also a model control group (n=1) and a solvent control group (n=3).
The SD rats were injected with U46619 (25 µg /kg) through the left jugular vein at different time points after airway nebulized administration, the peak value of RVSP rise after injection with U46619 was observed and recorded, and the inhibition percentage on the RVSP rise was calculated by comparing with the basic RVSP value. The rats in the model control group were administered with U46619 by intravenous injection immediately after successful catheterization and measurement of the basic RVSP. RVSP of all animals were detected by right cardiac catheterization, and respiratory conditions of the animals were observed generally. Table-2 Time points of administrating U46619 in various groups

Data set [2] can be described thus: Stability of treprostinil derivative in ethanol/water solutions of different pH (light irradiation, 40°C, 60°C). Format: physicochemical. The protocol: 1 mol/L hydrochloric acid and/or sodium hydroxide aqueous solution and distilled water were used to prepare 100 mL solutions with different pH values (3.0, 4.0, 5.0, 6.0, 7.0, 8.0, 9.0 and 10.0) for later use. 640 mg of compound Ia-2 was taken and added with 640 mL of 90% ethanol as a diluent to completely dissolve the compound, and then prepared into 1 mg/mL sample solution 1 for later use. • (1) […] of 90% ethanol, the sample solution 1 and 80 mL of each aqueous solution with different pH value (3.0, 5.0, 7.0 or 9.0) were taken and mixed evenly (ethanol: water =1.5: 1), and filled 2 mL per vial to obtain total 90 vials of samples, and the samples were divided into three groups equally for stability examination under the condition of light-irradiation, high-temperature of 40°C or high-temperature of 60°C. The samples of the two high-temperature stability examination groups were packaged in aluminum foil bags, 10 vials per bag; and the samples of the light-irradiation stability examination group were packaged in transparent bags, 10 vials per bag. • (2) 80 mL of 90% ethanol, the sample solution 1 and 80 mL of each aqueous solution with different pH value (4.0, 6.0, 8.0 or 10.0) were taken and mixed evenly (ethanol: water =2: 1), and then filled, grouped and packaged as above.
After the above samples were placed under conditions as described in Table-1, 15 vials of samples were taken from each group at each detection time point for detection for each pH value solution, comprising: the content of compound, the content of related substances (impurities) and liquid properties (whether there was turbidity, stratification or color change). The content of compound and the content of related substances were calculated by calculating the percentage of area occupied by the main ingredient through an area normalization method. Table-1 Placement conditions for stability examination of compound Ia-2

The results in this text go back to patent EP4741374A1, “TREPROSTINIL DERIVATIVE, AND PREPARATION METHOD THEREFOR AND USE THEREOF” (CF PharmTech HongKong Limited, priority 2023, dated 2025).

Take `CCCCC[C@H](O)CC[C@@H]1[C@H]2Cc3cccc(OCC(=O)OCCCCCCCCOCCCCc4ccccc4)c3C[C@H]2C[C@H]1O` [Compound Ia-2]: the “antihypertensive effect and duration, overall” value in data set [1] (1 to 48 hours after airway nebulized administration, equimolar doses) was “stronger antihypertensive effects than C16-TR and longer durations”. Besides, the antihypertensive effect entry is listed as “obvious antihypertensive effects” in data set [1] (24 hours after airway nebulized administration, equimolar to 13.3 µg/kg TRE) and “absence of an antihypertensive effect” in data set [1] (48 hours after airway nebulized administration). The content of compound entry in data set [2] (each group (pH 3-10), placement at 40°C for 30 days) is reported as “higher than 80%”; in data set [2] (ethanol: water 1.5:1 or 2.0:1, different pH values, after placement for 10 days), “higher than 95%”; in data set [2] (solution with pH=5.0~9.0, placement at 60°C for 30 days) it was “higher than 90%”. Further, the ethyl ester impurities is given as 8.0~9.0% in data set [2] (extreme conditions: pH=3, 60°C for 30 days, pH=10, 40°C for 30 days or 60°C more than 10 days); “less than 4.0%” in data set [2] (high-temperature placement, other conditions); “less than 1.80%” in data set [2] (light irradiation, each group, after 10 days).
